The source of these data is paper PMC3077712 (2010).

Assay [1] deals with T1, Cyclooxygenase-2 (COX-2) (Ovis aries, UniProt P79208).
T1 sequence (P79208 17-603): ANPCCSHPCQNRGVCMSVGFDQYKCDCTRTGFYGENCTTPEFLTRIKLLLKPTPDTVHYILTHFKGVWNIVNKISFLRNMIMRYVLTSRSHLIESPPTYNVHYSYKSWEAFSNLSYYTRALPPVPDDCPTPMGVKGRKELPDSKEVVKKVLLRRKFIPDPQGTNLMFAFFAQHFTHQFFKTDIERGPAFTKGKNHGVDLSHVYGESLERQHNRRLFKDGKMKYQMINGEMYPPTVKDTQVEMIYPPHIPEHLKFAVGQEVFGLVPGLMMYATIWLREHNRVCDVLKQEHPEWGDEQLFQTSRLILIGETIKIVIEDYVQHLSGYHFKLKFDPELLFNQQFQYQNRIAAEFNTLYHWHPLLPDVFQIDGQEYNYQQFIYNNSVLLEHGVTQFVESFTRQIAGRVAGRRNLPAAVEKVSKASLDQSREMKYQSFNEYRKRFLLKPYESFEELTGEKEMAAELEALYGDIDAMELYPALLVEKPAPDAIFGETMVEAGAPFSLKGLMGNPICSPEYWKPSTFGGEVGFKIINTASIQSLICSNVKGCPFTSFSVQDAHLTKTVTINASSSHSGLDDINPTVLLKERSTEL
Put plainly: purified enzyme, product formation and regioisomers by RP-HPLC-MS/MS. It counts as biochemical.

Assay [2] concerns the target T1, Cyclooxygenase-2 (COX-2). Put plainly: purified enzyme turnover, RP-HPLC-MS/MS. The format is biochemical.

Structures are written as SMILES.

Consider `CC(=O)Oc1ccccc1C(=O)O` [ASA], for which, in assay [1], the “purified enzyme, product formation and regioisomers by RP-HPLC-MS/MS” value is “ASA increased the rate and extent of formation of OH-DPA (Fig. 3c) and shifted the distribution of hydroxy regioisomers”.

For the compound `CC/C=C\C/C=C\C/C=C\C/C=C\C/C=C\CCCCCC(=O)O` [DPA, (7Z,10Z,13Z,16Z,19Z)-docosapentaenoic acid], in assay [2], the “purified enzyme turnover, RP-HPLC-MS/MS” value is “purified ovine COX-2 generated the EFOX-D5 precursor, hydroxy-DPA (OH-DPA), from DPA”.
